In a melting point compilation (Tetko et al.; mined from patent text by program, amines drawn as free bases though some values may be those of a salt) one finds melting point data, which are given here for 86 molecules.

In general, melting point refers to the temperature, or range, at which the solid turns liquid.

SMILES strings stand for the structures. Where only a bound is given, the exact number is not on record here.

In the case of `CCOc1cc(N)nc(Cl)n1`, the melting point was determined as 133 °C.
On to `O=C(Cc1ccncc1)N1CCC(=C2c3ccc(Cl)cc3CCc3c(On4nnc5ccccc54)ccnc32)CC1`, for which the melting point was 98.6 to 102 °C.
For `COCCOc1ccc(OCC(O)CNCCOc2ccc(OC)cc2)c(C#N)c1` (stereo unspecified) the value was 95 to 97 °C; for `N#CC(NC(=O)c1cccn2cc(-c3ccccc3)nc12)c1cccc(Cl)c1` (stereo unspecified), 210 to 211 °C.
`O=C(Nc1ccc(S(=O)(=O)c2ccncc2)cc1)C(O)(C(F)(F)F)C(F)(F)F` registered a melting point of 235 to 237 °C.
Consider `COc1ccc(Cc2c(N)nc(N)nc2O)cc1OC`, for which the melting point is 268 to 270 °C.
With `COc1ccc2c(c1)Sc1ccc(C(C)C(N)=O)cc1C(=O)C2` (stereo unspecified) the figure was 154 to 155 °C.
For `O=Cc1nn(-c2ccc(Cl)cc2)c2c1CCCC2` the value was 117 to 118 °C; for `CC(C)(C)OC(=O)NCC(=O)Nc1cccc(NC(=O)C(=O)N2CCC(Cc3ccccc3)CC2)c1`, 81 to 85 °C; for `Cc1ccc(C(O)C2OC(n3cc(C)c(=O)[nH]c3=O)CC2(O)c2ccc(C)cc2)cc1` (stereo unspecified), 194 to 196 °C.
`CN1C(=O)C(NC(=O)Nc2ccccc2)C(=O)N(CC23CC4CC(CC(C4)C2)C3)c2ccccc21` (single isomer, unassigned; (-)) returned a melting point of 173 to 178 °C.
Molecule `O=C/C=C/C=C(c1ccccc1)c1ccccc1` gave a melting point of 71 to 72 °C.
Molecule `O=C1CCCC2=C1C(c1ccc(F)c(I)c1)C1=C(CCS1)N2` (stereo unspecified) showed a melting point of more than 250 °C.
With `Cc1ccccc1C(CCC(=O)O)Oc1cc(OCc2cccc(CCC(=O)O)c2)ccc1C#N` (racemic), the melting point was in the range of 136 to 137 °C.
Molecule `COC1C(C)OC(OC2CC(C)(O)C(C(=O)O)c3cc4c(c(O)c32)C(=O)c2c(O)cc3c(c2C4=O)OC2OC3(C)C(O)C(N(C)C)C2O)C(OC)C1(C)OC` (stereo unspecified) gave a melting point of 219 to 229 °C.
Take `COc1cc(CC(C#N)=CNc2ccccc2)cc(OC)c1C(N)=O`: the melting point lay within 288 to 290 °C.
Molecule `Cc1cn(C(C)(C)C(=O)NC(C)(C)C)nc1-c1ccccc1` yielded a melting point of 71 to 75 °C.
Molecule `COc1cccc(CSCCNC(=O)c2c([N+](=O)[O-])cccc2[N+](=O)[O-])c1` yielded a melting point of 69 to 71 °C.
For `O=C(O)c1ccccc1OCCOc1cccc2ccccc12` the value was 205 to 207 °C; for `CC(C)(C)OC(=O)CC(=O)c1ccc(C#N)s1`, 78 °C; for `CCC1N=C(c2ccccc2Cl)c2cc(CC(=O)O)sc2-n2c(C)nnc21` (stereo unspecified), 170 to 180 °C.
Take `O=C1NC(=O)C(c2ccco2)N1` (stereo unspecified): the melting point lay in the range of 145 to 146 °C.
With `O=c1[nH]c2cc(F)c(O)c([N+](=O)[O-])c2[nH]c1=O` the figure was more than 360 °C; with `C#CCc1[nH]c(C)c2c1CN=C(c1ccccc1F)c1cc(Cl)ccc1-2`, 179 to 180 °C.
For `Nc1nc(N)nc(CNc2c(Br)cc(Br)cc2Br)n1` the value was 250 to 251 °C.
Turning to `O=C(NN=Cc1cccnc1)NN=Cc1cccnc1`, the melting point lay within 202 to 204 °C.
For `COc1ccc(Br)cc1C12CC3CC(CC(C3)C1)C2` the value was 138 to 139 °C; for `CCCn1nc(OCc2ccc3ccccc3n2)cc1C(=O)OC`, 71 to 72 °C; for `CC(=O)Nc1ccc(-c2ccc(C(=O)O)c(=O)[nH]2)cc1`, more than 260 °C.
With `CC(C)c1nc(CN(C(=O)N[C@H](C(=O)N[C@@H](Cc2ccccc2)C[C@H](O)[C@H](Cc2ccccc2)NC(=O)OCc2cncs2)C(C)C)C2CC2)cs1` the figure was 65 to 66 °C; with `Brc1cc(Br)cc(Cc2cc(Br)cc(Br)c2)c1`, 196 °C; with `Cc1oc(-c2ccc(SC(F)(F)F)cc2)nc1CCOc1ccc(CN(O)C(N)=O)cc1`, 157 to 159 °C.
Take `COc1ccc2c(c1)sc1ncc(C(O)CCc3ccccc3)n12` (stereo unspecified): the melting point lay in the range of 166 to 167 °C.
Regarding `C=CCSC(c1ccccc1)(c1ccccc1)c1ccccc1`, the melting point lay in the range of 99 to 101 °C.
With `COCCn1cc2c(C3C(=O)Nc4ccc(Br)cc43)nc(NCc3cccnc3)nc2n1` (stereo unspecified) the figure was 300 to 301 °C; with `Cc1ccc(C)c(SCCCCCC(=O)O)c1`, 61 to 62 °C; with `CCCc1nn(C)c2c(OCCOc3ccc(CC(OCC)C(=O)O)cc3)nc(CC)nc12` (stereo unspecified), 140 to 142 °C.
Consider `COC(=O)C(=O)c1ccc(OCC(=O)c2cccc3ccccc23)cc1`, for which the melting point was in the range of 99 to 100 °C.
With `Cc1cc2c(cc1O)C(C)(C)CC1(CC(C)(C)c3cc(OCCCC(=O)O)c(C)cc3O1)O2` (stereo unspecified) the figure was 173 to 174 °C.
With `CCCCCCCCNc1nc(C=O)cs1` the figure was 60 to 62 °C.
The molecule `O=C(O)c1ccc2c(c1)nc(-c1ccc(Oc3cccc(-c4cccc(Cl)c4)c3)cc1)n2C1CCCCC1` registered a melting point of 253 to 254 °C.
For `O=P(O)(O)CN(CP(=O)(O)O)c1ccccc1` the value was 130 to 131 °C; for `Clc1cc(Cl)nc(-c2ccc(Sc3ccccc3)cc2)n1`, 94 to 97 °C; for `CC(C)C(=O)c1cn(Cc2c(F)cccc2F)c2sc(-c3ccc(NC(=O)C(C)CO)cc3)c(CN(C)Cc3ccccc3)c2c1=O` (stereo unspecified), 161 to 162 °C.
For `CC(O)(CCSc1cc(C(C)(C)C)c(O)c(C(C)(C)C)c1)CC(=O)CCSc1cc(C(C)(C)C)c(O)c(C(C)(C)C)c1` (stereo unspecified), the melting point lay within 108 to 110 °C.
For `CC(C)(C)NS(=O)(=O)c1cccnc1F` the value was 95 to 97 °C.
Take `COc1cn(-c2cccnc2)nc(-c2ccnn2-c2ccccc2)c1=O`: the melting point lay in the range of 210 to 212 °C.
`N#Cc1c(N2CCN(C(=O)c3cccs3)CC2)c2ccccc2[nH]c1=O`: the melting point was found to be 264 °C.
For `COc1ccc(C2(C#N)C=C(C#N)CCC2)cc1OC1CCCC1` (stereo unspecified) the value was 77 to 79 °C; for `CCCCCCCCCCCCS(=O)(=O)N1CCCSC1=C(Cl)[N+](=O)[O-]`, 76 to 77 °C; for `CC(C)(C#N)c1cc(C=O)cc(C(C)(C)C#N)c1`, 145 to 147 °C.
For `CCCCc1nnc(SCc2ccc(OC)cc2)n1Cc1ccc(OC(C(=O)O)c2ccccc2)cc1` (stereo unspecified), the melting point is 78 to 79 °C.
Regarding `COc1ccc2[nH]cc(C3CCN(CCCCN4C(=O)CC5(CCCC5)CC4=O)CC3)c2c1`, the melting point worked out at 150 °C.
Molecule `CCCn1c(CCOC)nc2c(N)nc3cc(OC4CCN(S(C)(=O)=O)CC4)ccc3c21` showed a melting point of 224 to 226 °C.
On to `CCOC(=O)c1cnc2nc(C)ccc2c1OCC`, for which the melting point lay in the range of 82 to 83 °C.
`CC(O)C1=C(c2ccccc2)C(=O)N(C(C)(C)C(=O)Nc2cc(Cl)cc(Cl)c2)CO1` (stereo unspecified) gave a melting point of 85 to 88 °C.
`Cc1cc2c(s1)SCCNC2=O` displayed a melting point of 155 to 156 °C.
With `CC(=O)COc1cc(-n2c(=O)cc(C(F)(F)F)n(C)c2=O)c(F)cc1Cl` the figure was 164 to 166 °C.
In turn, `COc1ccc(/C=C(/C#N)c2c(F)cccc2F)cc1OC1CCCC1` gave a melting point of 79.1 to 81 °C.
For `Nc1nc(N)nc(-c2ccc(NS(=O)(=O)c3ccc4ccccc4c3)cc2)n1` the value was 230 to 233 °C; for `COc1ccc2cccc(C(CCO)CNC(=O)C3CC3)c2c1` (stereo unspecified), 158 to 160 °C; for `Cc1cccc(NC(=O)NC2CN(C(=O)C(C)(C)C)c3ccccc3N(CC(=O)N(C)C)C2=O)c1` (stereo unspecified), 252 to 254 °C.
With `OCc1c(-c2ccc(O)cc2)nnn1-c1ccc(C(F)(F)F)cc1Cl` the figure was 181 to 182 °C; with `COc1ccc2cc([C@H](C)C(=O)OCCO)ccc2c1`, 72 to 73 °C; with `Cc1cc(NC(=O)Cc2cccs2)nc(C)c1Br`, 192 °C.
With `O=c1c2cc(F)ccc2ncn1CCN1CC=C(c2c[nH]c3ccccc23)CC1` the figure was 138 °C; with `CC(C)(C)C1=CC(=O)C=CC1=O`, 55 to 60 °C.
The molecule `CC(C)(C)c1cc(C#N)c(Nc2ccccc2[N+](=O)[O-])s1` registered a melting point of 85 to 90 °C.
For `COc1ccc(C2=NNC(=O)CC2c2ccc(OC)c(F)c2)cc1` (stereo unspecified) the value was 171 to 173 °C; for `Cc1cc(C#Cc2ccccc2)nc(Oc2cc(C(F)(F)F)nn2C)c1`, 56 °C; for `CN(C(=O)N(CF)CF)c1nc2ccccc2s1`, 131 to 134 °C.
`COc1ccc(C(=O)c2c(-c3ccccc3)oc3ccc([N+](=O)[O-])cc23)cc1` displayed a melting point of 153 °C.
With `O=C(Nc1ccccc1)N1CCc2cc(S(=O)(=O)N3CC(c4ccccc4)NC3=O)ccc21` (stereo unspecified) the figure was 247 to 248 °C; with `CC1(C)CC2(CC(C)(C)c3ccc(Oc4ccc(N)cc4)cc32)c2cc(Oc3ccc(N)cc3)ccc21`, 214 to 215 °C.
`Cc1ccc(S(=O)(=O)N2CCc3c(sc(N)c3C(=O)c3ccccc3)C2)cc1`: the melting point fell in the range of 165 to 167 °C.
For `CCCc1c(OC)c(OC)cc2c1C(=O)N(CSc1nnnn1-c1ccccc1)S2(=O)=O` the value was 145 to 146 °C; for `O=C(CCl)Nc1cccc2[nH]ccc12`, 114 to 116 °C.
For `O=C(OCc1ccccc1)N1CC[C@@H](Oc2ccc([N+](=O)[O-])cc2)[C@H](O)C1` (relative stereo) the value was 179 to 180 °C; for `COc1ccc(Nc2cc(C)nc(N)n2)cc1Cl`, 250 °C.
As to `Nc1ccc2oc3c(c2c1)CCCCC3`, the melting point lay within 98 to 99 °C.
On to `COCN1C(=O)CN2CCOC2(c2ccccc2Cl)c2cc(Cl)ccc21` (stereo unspecified), for which the melting point is 144 to 147 °C.
For `Cc1cc(O)c(Cc2ccc(C(C)C)cc2)c(C)c1N(Cc1ccccc1)C(=O)CC(C)(C)C` the value was 167 to 168 °C; for `Oc1cc(C(F)(F)F)ccc1I`, 36 to 38 °C.
The molecule `COc1ccc(CCN(CC(C)C)S(=O)(=O)N[C@@H](Cc2ccc(NC(=O)c3c(Cl)cncc3Cl)cc2)C(=O)O)cc1OC` yielded a melting point of 192 °C.
As for `Cc1cccc(N2CCN(c3ccc(OCc4ccccc4)nn3)CC2)c1`, the melting point stood at 159 °C.
For the molecule `Oc1c(Cc2c[nH]cn2)cccc1C1=NCCN1`, the melting point amounted to 261 °C.
